Assay results taken from paper PMC4515429, “Anti-Biofilm and Immunomodulatory Activities of Peptides That Inhibit Biofilms Formed by Pathogens Isolated from Cystic Fibrosis Patients” (Antibiotics, 2014).
Values joined by “and” are separate entries in the source; they are usually repeats but may differ in a detail not shown here. Identical values can stand only once. Where no end group is shown, it is not given here.

Experiments:
[1] = system: P. aeruginosa 2639 (Mucoid); conditions: polypropylene 96-well plate, BM2 glucose, 22 h, 37 °C, crystal violet, absorbance 595, at least two independent experiments
Procedure: (§1) To assess the biofilm-forming ability of the different clinical isolates, dilutions (1/100) of overnight cultures were incubated in 96-well polypropylene plates using BM2 glucose medium, as previously described.
(§2) Biofilm formation was initially analyzed using a static abiotic solid surface assay as described elsewhere. Dilutions (1/100) of overnight cultures were incubated in BM2 glucose medium (62 mM potassium phosphate buffer (pH 7), 7 mM (NH4)2SO4, 2 mM MgSO4, 10 μM FeSO4, 0.4% (wt/vol) glucose, 0.5% (wt/vol) Casamino Acids) in polypropylene microtiter plates (Fisher Scientific, Waltham, MA, USA) in the presence of the different peptides for 22 h at 37 °C. Planktonic cells were removed and biofilm cells adhering to the side of the tubes were stained with crystal violet, extracted into ethanol, and the optical density at 595 nm (OD595) measured using a microtiter plate reader (Bio-Tek Instruments Inc., Winooski, VT, USA). Peptides were added at time zero (prior to adding the diluted, overnight cultures) at various concentrations, and the decrease in biofilm formation was recorded at 22 h for P. aeruginosa, Burkholderia and Methicillin-resistant Staphylococcus aureus isolates.

[2] = system: P. aeruginosa PA01; conditions: polypropylene 96-well plate, BM2 glucose, 22 h, 37 °C, crystal violet, absorbance 595, at least two independent experiments
Procedure: as §1, §2

[3] = system: P. aeruginosa PA14; conditions: polypropylene 96-well plate, BM2 glucose, 22 h, 37 °C, crystal violet, absorbance 595, at least two independent experiments
Procedure: as §1, §2

[4] = system: P. aeruginosa 3195 (Classic); conditions: polypropylene 96-well plate, BM2 glucose, 22 h, 37 °C, crystal violet, absorbance 595, at least two independent experiments
Procedure: as §1, §2

[5] = system: P. aeruginosa 3330 (Classic); conditions: polypropylene 96-well plate, BM2 glucose, 22 h, 37 °C, crystal violet, absorbance 595, at least two independent experiments
Procedure: as §1, §2

[6] = system: B. cenocepacia C5424 (IIIa); conditions: polypropylene 96-well plate, BM2 glucose, 22 h, 37 °C, crystal violet, absorbance 595, at least two independent experiments
Procedure: as §1, §2

[7] = system: B. ambifaria CEP0996 (VII); conditions: polypropylene 96-well plate, BM2 glucose, 22 h, 37 °C, crystal violet, absorbance 595, at least two independent experiments
Procedure: as §1, §2

[8] = system: B. cenocepacia CEP0055 (IIIb); conditions: polypropylene 96-well plate, BM2 glucose, 22 h, 37 °C, crystal violet, absorbance 595, at least two independent experiments
Procedure: as §1, §2

[9] = system: B. cenocepacia 4813 (IIIa); conditions: polypropylene 96-well plate, BM2 glucose, 22 h, 37 °C, crystal violet, absorbance 595, at least two independent experiments
Procedure: as §1, §2

[10] = system: B. cenocepacia CEP509 (IIIb); conditions: polypropylene 96-well plate, BM2 glucose, 22 h, 37 °C, crystal violet, absorbance 595, at least two independent experiments
Procedure: as §1, §2

[11] = system: B. multivorans D2661 (Genomovar II); conditions: polypropylene 96-well plate, BM2 glucose, 22 h, 37 °C, crystal violet, absorbance 595, at least two independent experiments
Procedure: as §1, §2

[12] = system: P. aeruginosa 2631 (Classic); conditions: polypropylene 96-well plate, BM2 glucose, 22 h, 37 °C, crystal violet, absorbance 595, at least two independent experiments
Procedure: as §1, §2

[13] = system: B. dolosa CEP0021 (VI); conditions: polypropylene 96-well plate, BM2 glucose, 22 h, 37 °C, crystal violet, absorbance 595, at least two independent experiments
Procedure: as §1, §2

[14] = system: P. aeruginosa 1172 (Classic); conditions: polypropylene 96-well plate, BM2 glucose, 22 h, 37 °C, crystal violet, absorbance 595, at least two independent experiments
Procedure: as §1, §2

[15] = system: B. stabilis C6061 (IV); conditions: polypropylene 96-well plate, BM2 glucose, 22 h, 37 °C, crystal violet, absorbance 595, at least two independent experiments
Procedure: as §1, §2

[16] = system: P. aeruginosa 7633 (Entire); conditions: polypropylene 96-well plate, BM2 glucose, 22 h, 37 °C, crystal violet, absorbance 595, at least two independent experiments
Procedure: as §1, §2

[17] = system: P. aeruginosa 2955 (Dwarf); conditions: polypropylene 96-well plate, BM2 glucose, 22 h, 37 °C, crystal violet, absorbance 595, at least two independent experiments
Procedure: as §1, §2

[18] = system: P. aeruginosa 7632 (Classic); conditions: polypropylene 96-well plate, BM2 glucose, 22 h, 37 °C, crystal violet, absorbance 595, at least two independent experiments
Procedure: as §1, §2

[19] = system: P. aeruginosa 2639 (Mucoid); conditions: planktonic cells; broth microdilution, BHI, 5 × 10^5 CFU/mL, 37 °C, 18 h; performed at least three times
Procedure: (§3) In addition to the wild type lab isolates Pseudomonas aeruginosa strains PAO1 and PA14, a variety of cystic fibrosis clinical isolates of P. aeruginosa and Burkholderia cepacia complex strains were utilized (Table 1). Planktonic cells from each of the P. aeruginosa and B. cepacia strains were grown in BM2 glucose or cation-adjusted Mueller-Hinton. The minimal inhibitory concentration (MIC) for peptides in brain-heart infusion (BHI) was assessed by the broth microdilution method with minor modifications for cationic peptides. […] MIC assays were performed in sterile 96-well polypropylene microtiter plates. […] The plates were incubated at 37 °C for 18 h.

[20] = system: P. aeruginosa PA01; conditions: planktonic cells; broth microdilution, BHI, 5 × 10^5 CFU/mL, 37 °C, 18 h; performed at least three times
Procedure: as §3

[21] = system: P. aeruginosa PA14; conditions: planktonic cells; broth microdilution, BHI, 5 × 10^5 CFU/mL, 37 °C, 18 h; performed at least three times
Procedure: as §3

[22] = system: P. aeruginosa 3195 (Classic); conditions: planktonic cells; broth microdilution, BHI, 5 × 10^5 CFU/mL, 37 °C, 18 h; performed at least three times
Procedure: as §3

[23] = system: P. aeruginosa 4608 (Mucoid); conditions: planktonic cells; broth microdilution, BHI, 5 × 10^5 CFU/mL, 37 °C, 18 h; performed at least three times
Procedure: as §3

[24] = system: P. aeruginosa 3330 (Classic); conditions: planktonic cells; broth microdilution, BHI, 5 × 10^5 CFU/mL, 37 °C, 18 h; performed at least three times
Procedure: as §3

[25] = system: B. cenocepacia C5424 (IIIa); conditions: planktonic cells; broth microdilution, BHI, 5 × 10^5 CFU/mL, 37 °C, 18 h; performed at least three times
Procedure: as §3

[26] = system: B. ambifaria CEP0996 (VII); conditions: planktonic cells; broth microdilution, BHI, 5 × 10^5 CFU/mL, 37 °C, 18 h; performed at least three times
Procedure: as §3

[27] = system: B. cenocepacia CEP0055 (IIIb); conditions: planktonic cells; broth microdilution, BHI, 5 × 10^5 CFU/mL, 37 °C, 18 h; performed at least three times
Procedure: as §3

[28] = system: B. cenocepacia 4813 (IIIa); conditions: planktonic cells; broth microdilution, BHI, 5 × 10^5 CFU/mL, 37 °C, 18 h; performed at least three times
Procedure: as §3

[29] = system: P. aeruginosa C4276 (Classic); conditions: planktonic cells; broth microdilution, BHI, 5 × 10^5 CFU/mL, 37 °C, 18 h; performed at least three times
Procedure: as §3

[30] = system: P. aeruginosa C4278 (Mucoid); conditions: planktonic cells; broth microdilution, BHI, 5 × 10^5 CFU/mL, 37 °C, 18 h; performed at least three times
Procedure: as §3

[31] = system: P. aeruginosa C2773 (Classic); conditions: planktonic cells; broth microdilution, BHI, 5 × 10^5 CFU/mL, 37 °C, 18 h; performed at least three times
Procedure: as §3

[32] = system: P. aeruginosa 4020 (Classic); conditions: planktonic cells; broth microdilution, BHI, 5 × 10^5 CFU/mL, 37 °C, 18 h; performed at least three times
Procedure: as §3

[33] = system: B. cenocepacia CEP509 (IIIb); conditions: planktonic cells; broth microdilution, BHI, 5 × 10^5 CFU/mL, 37 °C, 18 h; performed at least three times
Procedure: as §3

[34] = system: B. multivorans D2661 (Genomovar II); conditions: planktonic cells; broth microdilution, BHI, 5 × 10^5 CFU/mL, 37 °C, 18 h; performed at least three times
Procedure: as §3

[35] = system: P. aeruginosa 2631 (Classic); conditions: planktonic cells; broth microdilution, BHI, 5 × 10^5 CFU/mL, 37 °C, 18 h; performed at least three times
Procedure: as §3

[36] = system: B. dolosa CEP0021 (VI); conditions: planktonic cells; broth microdilution, BHI, 5 × 10^5 CFU/mL, 37 °C, 18 h; performed at least three times
Procedure: as §3

[37] = system: P. aeruginosa 1172 (Classic); conditions: planktonic cells; broth microdilution, BHI, 5 × 10^5 CFU/mL, 37 °C, 18 h; performed at least three times
Procedure: as §3

[38] = system: B. stabilis C6061 (IV); conditions: planktonic cells; broth microdilution, BHI, 5 × 10^5 CFU/mL, 37 °C, 18 h; performed at least three times
Procedure: as §3

[39] = system: P. aeruginosa 7633 (Entire); conditions: planktonic cells; broth microdilution, BHI, 5 × 10^5 CFU/mL, 37 °C, 18 h; performed at least three times
Procedure: as §3

[40] = system: P. aeruginosa 2955 (Dwarf); conditions: planktonic cells; broth microdilution, BHI, 5 × 10^5 CFU/mL, 37 °C, 18 h; performed at least three times
Procedure: as §3

[41] = system: P. aeruginosa 7632 (Classic); conditions: planktonic cells; broth microdilution, BHI, 5 × 10^5 CFU/mL, 37 °C, 18 h; performed at least three times
Procedure: as §3

**Q.** For VRLIVAVRIWRR-NH2 [Peptide 1018], which “Inhibition by 10 µg/mL 1018 (biofilm formation)” value (“Inhibition” below) [1] is on record?
**A.** The value was 44%.

**Q.** What about the “Inhibition” value [2] of the same substance?
**A.** The value was ~ 50% and 51%.

**Q.** And the “Inhibition” value [3]?
**A.** The value was ~ 50% and 49%.

**Q.** And the “Inhibition” value [4]?
**A.** The value was 37%.

**Q.** And the “Inhibition” value [5]?
**A.** The value was 33%.

**Q.** What about the “Inhibition” value [6] of the same substance?
**A.** Its value is 59%.

**Q.** And the “Inhibition” value [7]?
**A.** The value was 62%.

**Q.** And the “Inhibition” value [8]?
**A.** Its value is 58%.

**Q.** And the “Inhibition” value [9]?
**A.** Its value is 52%.

**Q.** What about the “Inhibition” value [10] of the same substance?
**A.** The value was 61%.

**Q.** What about the “Inhibition” value [11] of the same substance?
**A.** Its value is 75%.

**Q.** And the “Inhibition” value [12]?
**A.** The value was 44%.

**Q.** What about the “Inhibition” value [13] of the same substance?
**A.** Its value is 55%.

**Q.** And the “Inhibition” value [14]?
**A.** Its value is 37%.

**Q.** And the “Inhibition” value [15]?
**A.** Its value is 53%.

**Q.** And the “Inhibition” value [16]?
**A.** The value was 49%.

**Q.** What about the “Inhibition” value [17] of the same substance?
**A.** Its value is 41%.

**Q.** What about the “Inhibition” value [18] of the same substance?
**A.** Its value is 19%.

**Q.** And the MIC [19]?
**A.** Its MIC is 32 µg/mL.

**Q.** What about the MIC [20] of the same substance?
**A.** The MIC was 16 µg/mL.

**Q.** What about the MIC [21] of the same substance?
**A.** Its MIC is 16 µg/mL.

**Q.** And the MIC [22]?
**A.** The MIC was 16 µg/mL.

**Q.** What about the MIC [23] of the same substance?
**A.** Its MIC is 32 µg/mL.

**Q.** And the MIC [24]?
**A.** The MIC was 16 µg/mL.

**Q.** And the MIC [25]?
**A.** The MIC was 128 µg/mL.

**Q.** And the MIC [26]?
**A.** Its MIC is 64 µg/mL.

**Q.** And the MIC [27]?
**A.** Its MIC is 128 µg/mL.

**Q.** And the MIC [28]?
**A.** Its MIC is >256 µg/mL.

**Q.** What about the MIC [29] of the same substance?
**A.** Its MIC is 32 µg/mL.

**Q.** And the MIC [30]?
**A.** Its MIC is 16 µg/mL.

**Q.** And the MIC [31]?
**A.** The MIC was 16 µg/mL.

**Q.** What about the MIC [32] of the same substance?
**A.** Its MIC is 16 µg/mL.

**Q.** And the MIC [33]?
**A.** Its MIC is >256 µg/mL.

**Q.** What about the MIC [34] of the same substance?
**A.** Its MIC is >512 µg/mL.

**Q.** And the MIC [35]?
**A.** Its MIC is 32 µg/mL.

**Q.** And the MIC [36]?
**A.** The MIC was >256 µg/mL.

**Q.** And the MIC [37]?
**A.** Its MIC is 16 µg/mL.

**Q.** And the MIC [38]?
**A.** The MIC was 64 µg/mL.

**Q.** And the MIC [39]?
**A.** Its MIC is 16 µg/mL.

**Q.** And the MIC [40]?
**A.** Its MIC is 50 µg/mL.

**Q.** And the MIC [41]?
**A.** Its MIC is 16 µg/mL.
